The text below walks through data of patent US9771370B2, “Compounds for the inhibition of indoleamine-2,3-dioxygenase” (Merck Patent GmbH, priority 2014, dated 2017).

pIC50: −log10 of the molar value.

The target of this assay is Recombinant human IDO (Homo sapiens, UniProt P14902). Nature of the assay: Bridge-IT tryptophan fluorescence assay of human IDO-1 inhibition. Conditions: recombinant human IDO 7.5 nM, L-tryptophan. In kind it is biochemical. Summed up: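 Two protocol variants: 100 μM L-Trp for 90 min at 37 °C, or 30 min enzyme–compound pre-incubation at 25 °C, then 50 μM L-Trp for 60 min at 25 °C. Reaction stopped in Bridge-IT solution A for 30 min at 30 °C.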
Chain of Recombinant human IDO (P14902 whole entry): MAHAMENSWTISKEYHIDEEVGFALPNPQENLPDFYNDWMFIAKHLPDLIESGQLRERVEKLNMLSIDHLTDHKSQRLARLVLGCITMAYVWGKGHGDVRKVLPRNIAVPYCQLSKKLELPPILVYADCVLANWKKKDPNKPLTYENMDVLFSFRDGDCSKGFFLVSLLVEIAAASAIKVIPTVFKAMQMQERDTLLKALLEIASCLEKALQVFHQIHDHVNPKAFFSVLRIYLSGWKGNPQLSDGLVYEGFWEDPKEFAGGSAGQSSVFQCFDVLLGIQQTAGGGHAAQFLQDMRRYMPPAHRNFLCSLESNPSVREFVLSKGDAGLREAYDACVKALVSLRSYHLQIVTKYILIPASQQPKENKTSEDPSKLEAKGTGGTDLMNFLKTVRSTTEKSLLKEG
A word on the pIC50: it is the negative decadic logarithm of the IC50, by convention in mol/L. As for `NC(=O)CC1CCC(F)(CCC2c3c(Cl)cccc3-c3cncn32)CC1` (single isomer, unassigned) [Compound 113a, 2-[4-[2-[6-chloro-5H-imidazo[4,3-a]isoindol-5-yl]ethyl]-4-fluorocyclohexyl]acetamide], the pIC50 was above 7.00. For `NC(=O)CC1CCC(F)(CCC2c3c(Cl)cccc3-c3cncn32)CC1` (single isomer, unassigned) [Compound 113b, 2-[4-[2-[6-chloro-5H-imidazo[4,3-a]isoindol-5-yl]ethyl]-4-fluorocyclohexyl]acetamide], the pIC50 was below 6.00.

As to `NC(=O)CC1CCC(F)(CCC2c3c(Cl)cccc3-c3cncn32)CC1` (single isomer, unassigned) [Compound 113c, 2-[4-[2-[6-chloro-5H-imidazo[4,3-a]isoindol-5-yl]ethyl]-4-fluorocyclohexyl]acetamide], the pIC50 is below 6.00. As to `NC(=O)CC1CCC(F)(CCC2c3c(Cl)cccc3-c3cncn32)CC1` (single isomer, unassigned) [Compound 113d, 2-[4-[2-[6-chloro-5H-imidazo[4,3-a]isoindol-5-yl]ethyl]-4-fluorocyclohexyl]acetamide], the pIC50 is above 7.00. Turning to `CN(C)C(=O)C1CCC(F)(CCC2c3c(Cl)cccc3-c3cncn32)CC1` (single isomer, unassigned) [Compound 114a, 4-[2-[6-chloro-5H-imidazo[4,3-a]isoindol-5-yl]ethyl]-4-fluoro-N,N-dimethylcyclohexane-1-carboxamide], the pIC50 was above 7.00. As to `CN(C)C(=O)C1CCC(F)(CCC2c3c(Cl)cccc3-c3cncn32)CC1` (single isomer, unassigned) [Compound 114b, 4-[2-[6-chloro-5H-imidazo[4,3-a]isoindol-5-yl]ethyl]-4-fluoro-N,N-dimethylcyclohexane-1-carboxamide], the pIC50 is above 7.00. On to `CN(C)C(=O)C1CCC(F)(CCC2c3c(Cl)cccc3-c3cncn32)CC1` (single isomer, unassigned) [Compound 114c, 4-[2-[6-chloro-5H-imidazo[4,3-a]isoindol-5-yl]ethyl]-4-fluoro-N,N-dimethylcyclohexane-1-carboxamide], for which the pIC50 was below 6.00. Under `CN(C)C(=O)C1CCC(F)(CCC2c3c(Cl)cccc3-c3cncn32)CC1` (single isomer, unassigned) [Compound 114d, 4-[2-[6-chloro-5H-imidazo[4,3-a]isoindol-5-yl]ethyl]-4-fluoro-N,N-dimethylcyclohexane-1-carboxamide] stands below 6.00.

Turning to `O=C(C1CCC(F)(CCC2c3c(Cl)cccc3-c3cncn32)CC1)N1CCCCC1` (single isomer, unassigned) [Compound 115a], the pIC50 is above 7.00.

`O=C(C1CCC(F)(CCC2c3c(Cl)cccc3-c3cncn32)CC1)N1CCCCC1` (single isomer, unassigned) [Compound 115b]: the pIC50 was above 7.00. With `O=C(C1CCC(F)(CCC2c3c(Cl)cccc3-c3cncn32)CC1)N1CCCCC1` (single isomer, unassigned) [Compound 115c], the pIC50 was 6.00 to 7.00.

As for `O=C(C1CCC(F)(CCC2c3c(Cl)cccc3-c3cncn32)CC1)N1CCCCC1` (single isomer, unassigned) [Compound 115d], the pIC50 is below 6.00.

Turning to `NC(=O)CC1CCC(F)(CCC2c3c(F)cccc3-c3cncn32)CC1` (single isomer, unassigned) [Compound 116a, 2-[4-Fluoro-4-[2-[6-fluoro-5H-imidazo[4,3-a]isoindol-5-yl]ethyl]cyclohexyl]acetamide], the pIC50 was below 6.00. Under `NC(=O)CC1CCC(F)(CCC2c3c(F)cccc3-c3cncn32)CC1` (single isomer, unassigned) [Compound 116b, 2-[4-Fluoro-4-[2-[6-fluoro-5H-imidazo[4,3-a]isoindol-5-yl]ethyl]cyclohexyl]acetamide] stands above 7.00; under `NC(=O)CC1CCC(F)(CCC2c3c(F)cccc3-c3cncn32)CC1` (single isomer, unassigned) [Compound 116c, 2-[4-Fluoro-4-[2-[6-fluoro-5H-imidazo[4,3-a]isoindol-5-yl]ethyl]cyclohexyl]acetamide], below 6.00; under `NC(=O)CC1CCC(F)(CCC2c3c(F)cccc3-c3cncn32)CC1` (single isomer, unassigned) [Compound 116d, 2-[4-Fluoro-4-[2-[6-fluoro-5H-imidazo[4,3-a]isoindol-5-yl]ethyl]cyclohexyl]acetamide], above 7.00. Under `OC(CC1c2ncccc2-c2cncn21)C1CCC(C2(O)CC2)CC1` (single isomer, unassigned) [Compound 117a, 1-[4-[1-hydroxy-2-[4,6,9-triazatricyclo[6.4.0.0^[2,6]]dodeca-1(8),2,4,9,11-pentaen-7-yl]ethyl]cyclohexyl]cyclopropan-1-ol] stands below 6.00; under `OC(CC1c2ncccc2-c2cncn21)C1CCC(C2(O)CC2)CC1` (single isomer, unassigned) [Compound 117b, 1-[4-[1-hydroxy-2-[4,6,9-triazatricyclo[6.4.0.0^[2,6]]dodeca-1(8),2,4,9,11-pentaen-7-yl]ethyl]cyclohexyl]cyclopropan-1-ol], 6.00 to 7.00; under `OC(CC1c2ncccc2-c2cncn21)C1CCC(C2(O)CC2)CC1` (single isomer, unassigned) [Compound 117c, 1-[4-[1-hydroxy-2-[4,6,9-triazatricyclo[6.4.0.0^[2,6]]dodeca-1(8),2,4,9,11-pentaen-7-yl]ethyl]cyclohexyl]cyclopropan-1-ol], below 6.00.

For the compound `OC(CC1c2ncccc2-c2cncn21)C1CCC(C2(O)CC2)CC1` (single isomer, unassigned) [Compound 117d, 1-[4-[1-hydroxy-2-[4,6,9-triazatricyclo[6.4.0.0^[2,6]]dodeca-1(8),2,4,9,11-pentaen-7-yl]ethyl]cyclohexyl]cyclopropan-1-ol], the pIC50 is below 6.00. For the compound `COc1ccc2c(n1)C(CC(N)C1CCCCC1)n1cncc1-2` (single isomer, unassigned) [Compound 118b, 1-cyclohexyl-2-[10-methoxy-4,6,9-triazatricyclo[6.4.0.0^[2,6]]dodeca-1(8),2,4,9,11-pentaen-7-yl]ethan-1-amine], the pIC50 is 6.00 to 7.00. As to `COc1ccc2c(n1)C(CC(N)C1CCCCC1)n1cncc1-2` (single isomer, unassigned) [Compound 118c, 1-cyclohexyl-2-[10-methoxy-4,6,9-triazatricyclo[6.4.0.0^[2,6]]dodeca-1(8),2,4,9,11-pentaen-7-yl]ethan-1-amine], the pIC50 was below 6.00. Regarding `COc1ccc2c(n1)C(CC(N)C1CCC(C)(C)CC1)n1cncc1-2` (single isomer, unassigned) [Compound 119a, 1-(4,4-dimethylcyclohexyl)-2-[10-methoxy-4,6,9-triazatricyclo[6.4.0.0^[2,6]]dodeca-1(8),2,4,9,11-pentaen-7-yl]ethan-1-amine], the pIC50 is below 6.00. Turning to `COc1ccc2c(n1)C(CC(N)C1CCC(C)(C)CC1)n1cncc1-2` (single isomer, unassigned) [Compound 119b, 1-(4,4-dimethylcyclohexyl)-2-[10-methoxy-4,6,9-triazatricyclo[6.4.0.0^[2,6]]dodeca-1(8),2,4,9,11-pentaen-7-yl]ethan-1-amine], the pIC50 was below 6.00.

In the case of `COc1ccc2c(n1)C(CC(N)C1CCC(C)(C)CC1)n1cncc1-2` (single isomer, unassigned) [Compound 119c, 1-(4,4-dimethylcyclohexyl)-2-[10-methoxy-4,6,9-triazatricyclo[6.4.0.0^[2,6]]dodeca-1(8),2,4,9,11-pentaen-7-yl]ethan-1-amine], the negative logarithm of the IC50 (pIC50) was 6.00 to 7.00.

Take `COc1ccc2c(n1)C(CC(N)C1CCC(C)(C)CC1)n1cncc1-2` (single isomer, unassigned) [Compound 119d, 1-(4,4-dimethylcyclohexyl)-2-[10-methoxy-4,6,9-triazatricyclo[6.4.0.0^[2,6]]dodeca-1(8),2,4,9,11-pentaen-7-yl]ethan-1-amine]: the pIC50 is below 6.00. Under `COc1ccc2c(n1)C(CC(N)C1CCC(F)(F)CC1)n1cncc1-2` (single isomer, unassigned) [Compound 120a, 1-(4,4-difluorocyclohexyl)-2-[10-methoxy-4,6,9-triazatricyclo[6.4.0.0^[2,6]]dodeca-1(8),2,4,9,11-pentaen-7-yl]ethan-1-amine] stands below 6.00; under `COc1ccc2c(n1)C(CC(N)C1CCC(F)(F)CC1)n1cncc1-2` (single isomer, unassigned) [Compound 120b, 1-(4,4-difluorocyclohexyl)-2-[10-methoxy-4,6,9-triazatricyclo[6.4.0.0^[2,6]]dodeca-1(8),2,4,9,11-pentaen-7-yl]ethan-1-amine], below 6.00; under `COc1ccc2c(n1)C(CC(N)C1CCC(F)(F)CC1)n1cncc1-2` (single isomer, unassigned) [Compound 120c, 1-(4,4-difluorocyclohexyl)-2-[10-methoxy-4,6,9-triazatricyclo[6.4.0.0^[2,6]]dodeca-1(8),2,4,9,11-pentaen-7-yl]ethan-1-amine], 6.00 to 7.00. Turning to `COc1ccc2c(n1)C(CC(N)C1CCC(F)(F)CC1)n1cncc1-2` (single isomer, unassigned) [Compound 120d, 1-(4,4-difluorocyclohexyl)-2-[10-methoxy-4,6,9-triazatricyclo[6.4.0.0^[2,6]]dodeca-1(8),2,4,9,11-pentaen-7-yl]ethan-1-amine], the pIC50 was below 6.00. Turning to `NS(=O)(=O)C1CCC(F)(CCC2c3ccccc3-c3cncn32)CC1` (single isomer, unassigned) [Compound 121a, 4-fluoro-4-[2-[5H-imidazo[4,3-a]isoindol-5-yl]ethyl]cyclohexane-1-sulfonamide], the pIC50 was above 7.00.

With `NS(=O)(=O)C1CCC(F)(CCC2c3ccccc3-c3cncn32)CC1` (single isomer, unassigned) [Compound 121b, 4-fluoro-4-[2-[5H-imidazo[4,3-a]isoindol-5-yl]ethyl]cyclohexane-1-sulfonamide], the pIC50 is below 6.00.
